Results on three compounds are retold here after patent publication US20260130966A1, “NOVEL THERAPEUTICS FOR PARASITIC INFECTION” (UNIVERSITY OF SOUTH FLORIDA, priority 2022, published 2026).

One series concerns C. difficile UK6. The series can be described thus: C. difficile MIC screening. It counts as cell-based, Clostridium difficile.
In another series the test system is HepG2. Put plainly: MTT cytotoxicity, human liver HepG2 cells. It counts as cell-based. The procedure:
(§1) The cytotoxicity of the metabolites to human liver cells and kidney cells was determined using an MTT based-In Vitro Toxicology Assay Kit (Sigma-Aldrich, St. Louis, MO, USA) following the manufacturing instructions. The human kidney HEK293T cells and the human liver HEPGZ cells were used for the evaluation in this study. Both cell samples were maintained and suspended in Dulbecco's Modified Eagle Medium (DMEM with 4.5 g/L glucose, L-glutamine and sodium pyruvate, Corning, Manassas, VA, USA) containing 10% fetal bovine serum (Thermo Scientific) and 1% penicillin/streptomycin at 37° C. under 5% CO2 atmosphere. The cells were plated on a 96-well plate with approximately 5×10^3-1×10^4 cells in each well, and incubated at 37° C. overnight. […] After that, the liquid in each well of the plate was removed carefully and thoroughly, then the cells in the wells were treated with 100 μL of DMSO, and incubated at 37° C. for 15 m. […] Bio Tek Instruments, Inc. Winooski VT). Cells treated with vancomycin, a common option for treating CDI in clinical settings, were also included in the MTT tests as a control. Cell survival and the IC50 were calculated according to the method used in a previous publication: Survival of cells (%)=Drug-treated group OD540/control group OD540×100.

Series [1] has as its system ESKAPE panel of bacterial pathogens. Put plainly: ESKAPE panel antibacterial screen. It counts as cell-based.
In a further series the test system is HEK293T. The series can be described thus: MTT cytotoxicity, human kidney HEK293T cells. The format is cell-based. As to the method:
as §1

The test system of the next series is J774.A1 macrophages. The series can be described thus: Cytotoxicity screen against Leishmania host cell line. The format is cell-based. The settings on record: toxicity to J774.A1 macrophages. The procedure: The Leishmania donovani infected macrophage assay and cytotoxicity screen were conducted as previously described.
In series [2] the test system is liver stage of Plasmodium falciparum. The following applies: previous investigation; cited from earlier work.

Usually MIC stands for the lowest concentration found to suppress growth. Usually CC50 stands for the concentration giving 50% cytotoxicity. The low end stands for greater toxicity to the cells, the high end for lower toxicity to the cells. As usually defined, the IC50 is the concentration at which inhibition is half-maximal.

Converted amounts (≈) assume the structure as drawn. Where a SMILES comes first, the peptide text is derived from it. [ ]: non-standard residue; d: D form. The star is where a group is joined. NMeI = CC[C@H](C)[C@H](NC)C(=O)O; X1 = CN(/C=C\c1c[nH]c2ccccc12)*; NMeV = CN[C@H](C(=O)O)C(C)C; NMeA = CN[C@@H](C)C(=O)O

On to `Cc1cc2c(c3c1[C@@H](CO)OC3=O)CC(C)(C)C2` [Compound C3, alcyopterosin V], for which the “activity against Clostridium difficile” value in the series on C. difficile UK6 is listed as “potent activity”. Further, the MIC in the series with C. difficile UK6 (C. difficile) is 8.1 µM (≈ 2 µg/mL). Besides, the CC50 in the series with HepG2 is 288 µM; in the series with HEK293T it was 220 µM. Moreover, the “activity against the ESKAPE panel” value in series [1] is “inactive”. The compound also registered a concentration for half-maximal inhibition (IC50) with J774.A1 macrophages of 110 µM.

For the compound `Cc1cc2c(c3c1[C@H](CO[N+](=O)[O-])OC3=O)CC(C)(C)C2` [Compound C4, alcyopterosin E], in the series with C. difficile UK6, the “activity against Clostridium difficile” value was “potent activity”. For the same compound, the cytotoxic concentration (CC50) in the series on HepG2 came to 331 µM; in the series with HEK293T, 570 µM. Also, the “activity against the ESKAPE panel” value in series [1] is “inactive”. The half-inhibitory concentration (IC50) with J774.A1 macrophages is 62 µM.

With `CC[C@H](C)[C@@H](C(=O)N(C)/C=C\c1c[nH]c2ccccc12)N(C)C(=O)[C@H]([C@@H](C)CC)N(C)C(=O)[C@H](C)N(C)C(=O)[C@H](C(C)C)N(C)C(=O)[C@H](Cc1ccccc1)NC(C)=O` [Compound P1, friomaramide A] (Ac-F[NMeV][NMeA][NMeI][NMeI]-X1), the “blocking of liver stage parasite development” value in series [2] is given as “comparable to the known drug primaquine”.
